Earlier results, collected in patent publication US20070154432A1, “Compositions and methods for hair growth” (priority 2005, published 2007).

Columns and labels:
5α-alpha reductase = conditions: individually shown / studies have suggested
[1] = 200 individual; published in the Federal Register

SMILES	inhibition of 5α-alpha reductase (in words) (5α-alpha reductase)	toxicity, irritation and allergenicity by Schwartz patch test [1]
CC/C=C\C/C=C\C/C=C\CCCCCCCC(=O)O [ALA, Alpha Linolenic Acid]	inhibit	–
NC(=O)NC1NC(=O)NC1=O (centres unmarked) [Allantoin, allantoin]	–	nontoxic, nonirritating and non-allergenic
CCCCC/C=C\C/C=C\C/C=C\CCCCC(=O)O [GLA, Gamma Linolenic Acid]	inhibit	–
CCCCC/C=C\C/C=C\CCCCCCCC(=O)O [linoleic acid, Linoleic Acid]	inhibit	–
[Zn] [zinc]	inhibits	–
